Patent publication US11214803B2, “Modulators of YAP1 expression” (Ionis Pharmaceuticals, Inc., priority 2019, dated 2022)
Strand notation (5' to 3'): a small letter for the sugar, then the base; units joined by * are phosphorothioate-linked, units joined directly phosphodiester-linked; [ ] holds rarer units or linkages, { } end groups; capitals alone tell only the bases. k = constrained ethyl (cEt); [5mC] = 5-methylcytosine; d = 2'-deoxy (DNA)

Test system: Yap1 mRNA
Assay: Dose-dependent inhibition of human Yap1 in A-431 cells (Example 7, 10,000 cells per well, RTS36584)
Assay type: cell-based
Details: free uptake
Outline: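 Yap1 mRNA was expressed as percent of untreated control after normalization to total RNA (RIBOGREEN), and IC50 was derived by log/linear linear regression. The read-out used primer-probe set RTS36584 roughly 48 hours after free-uptake dosing of oligonucleotides into A-431 cells (10,000 cells/well).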

[1] = 15.6 nM, A-431 cells, 10,000 cells per well, approximately 48 hours
[2] = 62.5 nM, A-431 cells, 10,000 cells per well, approximately 48 hours
[3] = 4000.00 nM, A-431 cells, 10,000 cells per well, approximately 48 hours
[4] = A-431 cells, approximately 48 hours, linear regression on log/linear plot
[5] = Table 61, 15.6 nM, A-431 cells 10,000 cells per well, 48 hours
[6] = Table 61, 62.5 nM, A-431 cells 10,000 cells per well, 48 hours
[7] = Table 61, 4000.00 nM, A-431 cells 10,000 cells per well, 48 hours
[8] = Table 61, A-431 cells 10,000 cells per well
[9] = Table 57, 15.6 nM, A-431 cells 10,000 cells per well, 48 hours
[10] = Table 57, 62.5 nM, A-431 cells 10,000 cells per well, 48 hours
[11] = Table 57, 4000.00 nM, A-431 cells 10,000 cells per well, 48 hours
[12] = Table 57, A-431 cells 10,000 cells per well
[13] = Table 60, 15.6 nM, A-431 cells 10,000 cells per well, 48 hours
[14] = Table 60, 62.5 nM, A-431 cells 10,000 cells per well, 48 hours
[15] = Table 60, 4000.00 nM, A-431 cells 10,000 cells per well, 48 hours
[16] = Table 60, A-431 cells 10,000 cells per well

958594 (k[5mC]*kT*k[5mC]*dT*dT*dA*dG*dG*dT*d[5mC]*dT*d[5mC]*d[5mC]*kT*kT*k[5mC]; antisense) [compound 958594]
Yap1 mRNA, % UTC [1]: 91 % UTC
Yap1 mRNA, % UTC [2]: 70 % UTC
Yap1 mRNA, % UTC [3]: 20 % UTC
IC50 [4]: 200 nM

958659 (kG*kT*kT*dG*dT*dA*dT*dT*dA*d[5mC]*dT*d[5mC]*dT*k[5mC]*k[5mC]*kA; antisense) [compound 958659]
Yap1 mRNA, % UTC [5]: 91 % UTC
Yap1 mRNA, % UTC [6]: 68 % UTC
Yap1 mRNA, % UTC [7]: 9 % UTC
IC50 [8]: 100 nM

958616 (kG*kG*kT*dG*dG*dT*d[5mC]*dT*dT*dG*dT*dT*d[5mC]*kT*kT*kA; antisense) [compound 958616]
Yap1 mRNA, % UTC [9]: 78 % UTC
Yap1 mRNA, % UTC [10]: 49 % UTC
Yap1 mRNA, % UTC [11]: 17 % UTC
IC50 [12]: 100 nM

958575 (kG*kG*k[5mC]*dT*dA*d[5mC]*dT*dG*dG*d[5mC]*dA*dA*dA*kT*kT*kA; antisense) [compound 958575]
Yap1 mRNA, % UTC [1]: 89 % UTC
Yap1 mRNA, % UTC [2]: 58 % UTC
Yap1 mRNA, % UTC [3]: 20 % UTC
IC50 [4]: 100 nM

958598 (k[5mC]*k[5mC]*k[5mC]*dA*dA*dT*dG*d[5mC]*dT*dA*d[5mC]*d[5mC]*d[5mC]*kA*kA*kT; antisense) [compound 958598]
Yap1 mRNA, % UTC [13]: 93 % UTC
Yap1 mRNA, % UTC [14]: 58 % UTC
Yap1 mRNA, % UTC [15]: 19 % UTC
IC50 [16]: 100 nM

958356 (antisense kT*kT*kG*dA*dA*dG*dA*dA*dG*dG*dA*dG*dT*k[5mC]*kG*kG) [compound 958356]
Yap1 mRNA, % UTC (Table 56, 15.6 nM, A-431 cells 10,000 cells per well, 48 hours): 84 % UTC
Yap1 mRNA, % UTC (Table 56, 62.5 nM, A-431 cells 10,000 cells per well, 48 hours): 79 % UTC
Yap1 mRNA, % UTC (Table 56, 4000.00 nM, A-431 cells 10,000 cells per well, 48 hours): 21 % UTC
IC50 (Table 56, A-431 cells 10,000 cells per well): 180 nM

958474 (kG*kT*kG*dT*d[5mC]*dT*d[5mC]*d[5mC]*dT*dT*dA*dG*dA*kT*k[5mC]*k[5mC]; antisense) [compound 958474]
Yap1 mRNA, % UTC [5]: 63 % UTC
Yap1 mRNA, % UTC [6]: 37 % UTC
Yap1 mRNA, % UTC [7]: 11 % UTC
IC50 [8]: 30 nM

958545 (kA*k[5mC]*kT*d[5mC]*dT*dA*dG*dT*dT*dA*d[5mC]*dA*dT*k[5mC]*kA*kT; antisense) [compound 958545]
Yap1 mRNA, % UTC [1]: 75 % UTC
Yap1 mRNA, % UTC [2]: 50 % UTC
Yap1 mRNA, % UTC [3]: 8 % UTC
IC50 [4]: 100 nM

958486 (kT*kT*kA*dG*dA*dG*d[5mC]*d[5mC]*dA*dA*d[5mC]*dT*dG*kT*kG*kA; antisense) [compound 958486]
Yap1 mRNA, % UTC [9]: 87 % UTC
Yap1 mRNA, % UTC [10]: 73 % UTC
Yap1 mRNA, % UTC [11]: 22 % UTC
IC50 [12]: 200 nM

958567 (kT*k[5mC]*kA*dA*d[5mC]*d[5mC]*dT*dA*dT*dG*dA*dA*d[5mC]*kT*kA*kT; antisense) [compound 958567]
Yap1 mRNA, % UTC (Table 58, 15.6 nM, A-431 cells 10,000 cells per well, 48 hours): 99 % UTC
Yap1 mRNA, % UTC (Table 58, 62.5 nM, A-431 cells 10,000 cells per well, 48 hours): 80 % UTC
Yap1 mRNA, % UTC (Table 58, 4000.00 nM, A-431 cells 10,000 cells per well, 48 hours): 16 % UTC
IC50 (Table 58, A-431 cells 10,000 cells per well): 200 nM

958558 (kT*kT*k[5mC]*dA*d[5mC]*dA*dA*d[5mC]*d[5mC]*dA*dA*d[5mC]*dT*kA*kT*kT; antisense) [compound 958558]
Yap1 mRNA, % UTC [13]: 84 % UTC
Yap1 mRNA, % UTC [14]: 83 % UTC
Yap1 mRNA, % UTC [15]: 35 % UTC
IC50 [16]: 500 nM

958523 (kT*kT*k[5mC]*d[5mC]*dA*dA*dT*d[5mC]*dG*dA*dG*dA*d[5mC]*kT*kT*kA; antisense) [compound 958523]
Yap1 mRNA, % UTC [13]: 86 % UTC
Yap1 mRNA, % UTC [14]: 64 % UTC
Yap1 mRNA, % UTC [15]: 12 % UTC
IC50 [16]: 100 nM

958781 (kG*kT*k[5mC]*dA*dT*d[5mC]*dT*dA*dT*dG*dT*dG*dT*k[5mC]*k[5mC]*kT; antisense) [compound 958781]
Yap1 mRNA, % UTC [9]: 77 % UTC
Yap1 mRNA, % UTC [10]: 45 % UTC
Yap1 mRNA, % UTC [11]: 10 % UTC
IC50 [12]: 100 nM

958508 (kG*kA*kG*dA*dG*d[5mC]*dA*dG*dA*dT*dA*dA*dT*k[5mC]*kG*kA; antisense) [compound 958508]
Yap1 mRNA, % UTC [13]: 65 % UTC
Yap1 mRNA, % UTC [14]: 64 % UTC
Yap1 mRNA, % UTC [15]: 13 % UTC
IC50 [16]: 100 nM
